Laboratory results reported in US20020156325A1, “Asymmetric beta-ketoiminate ligand compound, preparation method thereof, and organometal percursor comprising the same” (priority 2001, published 2002).

Assay: Thermal gravimetric analysis at atmospheric pressure
Format: physicochemical

Row | Substance | solid residue left after vaporization or decomposition | temperature at which the metal complex was vaporized or decomposed | residue left after vaporization or decomposition (in words) (at 290° C.)
1 | Ti[CH3COCHCNH(CH2CH2OH)CH2CH3]2 [Example 5] | 7% | about 330 °C | –
2 | Ti[CH3COCHCN(CH2CH2OH)2CH2CH3]2 [Example 6] | about 12% | about 380 °C | –
3 | Ti [CH3COCHCNH (CH2CH (CH3) OH) CH2CH3]2 [Example 4] | – | 290 °C | little residue
